Patent US12552783B2, “Modulators of proteolysis and associated methods of use” (Arvinas Operations, Inc., priority 2018, dated 2026)

Target: KRas (Homo sapiens, UniProt P01116, G12C)
Assay: KRas degradation in NCI-H2030 cells by Western blot, normalized to GAPDH (data of Table 14)
Type: cell-based
Parameters: host or cells: NCI-H2030
Conditions: for Dmax: NCI-H2030
Method: Cell Lines, Antibodies, and Reagents. NCI-H2030 (CRL-5914) and SW1573 (CRL-2170) cells were purchased from ATCC. Both cell lines are homozygous for the G12C mutation in KRas. NCI-H2030 cells were cultured in RPMI-1640 medium containing 1% penicillin-streptomycin and 10% fetal bovine serum (FBS). SW1573 cells were cultured in DMEM containing 1% penicillin-streptomycin and 10% FBS. The KRas detection antibody (Cat. No. LS-C175665) was purchased from LifeSpan Biosciences and was used at a dilution of 1:2000. GAPDH was detected using an antibody purchased from Cell Signaling Technology (Cat. No. 5174) and was diluted 1:3000. Secondary anti-mouse and anti-rabbit detection antibodies were purchased from Cell Signaling Technology (Cat. Nos. 7076 and 7074, respectively).
Compound Treatment and Western Blotting of the Data of Table 14. Either NCI-H2030 or SW1573 cells were plated in 12-well plates and allowed to adhere overnight at 37° C. in an incubator containing 5% CO2. The following day, the medium was replaced with the appropriate medium lacking FBS to induce starvation. Cells were returned to the incubator for an additional 24 hours following media exchange. […] Cells were treated with VHL-based compounds for 24 hours and all other compounds for 72 hours. Following treatment, cells were lysed in RIPA buffer (Thermo Fisher Cat. No. 89900) containing phosphatase (Thermo Fisher Cat. No. 1861277) and protease (Thermo Fisher Cat. No. 78429) inhibitor cocktails. Lysates were cleared at 13,000 rpm for 15 minutes and supernatants were assayed for total protein concentration using the Pierce BCA assay system (Thermo Fisher Cat. No. 23225). For each sample, 10 μg total protein was resolved on a 12% Bis-Tris gel and then transferred to a nitrocellulose membrane. After blocking in 3% BSA in TBST (Tris-buffered Saline with 0.1% Tween-20) for 1 hour at room temperature, membranes were probed with the primary antibody (LS Bio Cat. No. LS-C175665) overnight at 4° C. After incubation with the secondary antibody, the following day membranes were visualized using the SuperSignal™ West Femto substrate (Thermo Fisher Cat. No. 34095). The KRas signal in each lane was normalized to GAPDH and percent degradation was either estimated as less than 25% by visual inspection (C in Table 13) or quantitated relative to the DMSO control lane using BIO-RAD Image Lab 5.2.1, and all data was plotted using GraphPad PRISM 6.07.
DC50 is the half-maximal degradation concentration—i.e., the concentration at which 50% degradation is observed. DMax is the maximum degradation efficacy is achieved—i.e., the maximal degradation observed) degradation data.

Row | Percent Degradation at Indicated Concentration (μM): 0.3 (H2030 cells, 0.3 μM) | Percent Degradation at Indicated Concentration (μM): 1 (H2030 cells, 1 μM) | Percent Degradation at Indicated Concentration (μM): 3 (H2030 cells, 3 μM) | Dmax (H2030 cells) [%] | Percent Degradation at Indicated Concentration (μM) (H2030, 0.3 μM) | Percent Degradation at Indicated Concentration (μM) (H2030, 1 μM) | Percent Degradation at Indicated Concentration (μM) (H2030, 3 μM) | Dmax [%] | Structure (SMILES) | also measured
1 | C (C ≤ 35) | C (C ≤ 35) | C (C ≤ 35) | ≤ 35 |  |  |  |  | CCC(=O)N1CCN(c2nc(NCCC(=O)N(C)CCOCCOCCOCCOCC(=O)N[C@H](C(=O)N3C[C@H](O)C[C@H]3C(=O)N[C@@H](C)c3ccc(-c4scnc4C)cc3)C(C)(C)C)nc3c(F)c(-c4cc(O)cc5ccccc45)c(Cl)cc23)CC1 [compound 189, (2S,4R)-1-((2S)-2-(tert-butyl)-21-((6-chloro-8-fluoro-7-(3-hydroxynaphthalen-1-yl)-4-(4-propionylpiperazin-1-yl)quinazolin-2-yl)amino)-18-methyl-4,19-dioxo-6,9,12,15-tetraoxa-3,18-diazahenicosanoyl)-4-hydroxy-N-((S)-1-(4-(4-methylthiazol-5-yl)phenyl)ethyl)pyrrolidine-2-carboxamide] | 
2 | C (C ≤ 35) | C (C ≤ 35) | C (C ≤ 35) | ≤ 35 |  |  |  |  | CCC(=O)N1CCN(c2nc(NCCC(=O)N(C)CCOCCOCCOCC(=O)N[C@H](C(=O)N3C[C@H](O)C[C@H]3C(=O)N[C@@H](C)c3ccc(-c4scnc4C)cc3)C(C)(C)C)nc3c(F)c(-c4cc(O)cc5ccccc45)c(Cl)cc23)CC1 [compound 188, (2S,4R)-1-((2S)-2-(tert-butyl)-18-((6-chloro-8-fluoro-7-(3-hydroxynaphthalen-1-yl)-4-(4-propionylpiperazin-1-yl)quinazolin-2-yl)amino)-15-methyl-4,16-dioxo-6,9,12-trioxa-3,15-diazaoctadecanoyl)-4-hydroxy-N-((S)-1-(4-(4-methylthiazol-5-yl)phenyl)ethyl)pyrrolidine-2-carboxamide] | 
3 |  |  |  |  |  |  | C (Percent Degradation: C ≤ 35) |  | C=CC(=O)N1CCN(c2nc(NCCC(=O)N(C)CCOCCOCCOCC(=O)N[C@H](C(=O)N3C[C@H](O)C[C@H]3C(=O)N[C@@H](C)c3ccc(-c4scnc4C)cc3)C(C)(C)C)nc3c(F)c(-c4c(O)cccc4F)c(Cl)cc23)CC1 (atropisomer, axis not shown) [compound 209, (2S,4R)-1-((S)-18-((4-(4-acryloylpiperazin-1-yl)-6-chloro-8-fluoro-7-((S)-2-fluoro-6-hydroxyphenyl)quinazolin-2-yl)amino)-2-(tert-butyl)-15-methyl-4,16-dioxo-6,9,12-trioxa-3,15-diazaoctadecanoyl)-4-hydroxy-N-((S)-1-(4-(4-methylthiazol-5-yl)phenyl)ethyl)pyrrolidine-2-carboxamide] | 

More lines, now with the values behind:

Row | Structure (SMILES) | Percent Degradation at Indicated Concentration (μM): 0.3 (H2030 cells, 0.3 μM) | Percent Degradation at Indicated Concentration (μM): 1 (H2030 cells, 1 μM) | Percent Degradation at Indicated Concentration (μM): 3 (H2030 cells, 3 μM) | Dmax (H2030 cells) [%] | Percent Degradation at Indicated Concentration (μM) (H2030, 0.3 μM) | Percent Degradation at Indicated Concentration (μM) (H2030, 1 μM) | Percent Degradation at Indicated Concentration (μM) (H2030, 3 μM) | Dmax [%] | also measured
4 | CCC(=O)N1CCN(c2nc(NCCC(=O)N(C)CCOCCOCCOc3ccc4c(c3)C(=O)N(C3CCC(=O)NC3=O)C4=O)nc3c(F)c(-c4cc(O)cc5ccccc45)c(Cl)cc23)CC1 (centres unmarked) [compound 48, 3-((6-chloro-8-fluoro-7-(3-hydroxynaphthalen-1-yl)-4-(4-propionylpiperazin-1-yl)quinazolin-2-yl)amino)-N-(2-(2-(2-((2-(2,6-dioxopiperidin-3-yl)-1,3-dioxoisoindolin-5-yl)oxy)ethoxy)ethoxy)ethyl)-N-methylpropanamide] | C (C ≤ 35) | C (C ≤ 35) | C (C ≤ 35) | ≤ 35 |  |  |  |  | 
5 | C=CC(=O)N1CCN(c2nc(NCCC(=O)N(C)CCOCCOCCOCCOCCNc3cccc4c3C(=O)N(C3CCC(=O)NC3=O)C4=O)nc3c(F)c(-c4c(O)cccc4F)c(Cl)cc23)CC1 [compound 116, 3-(((R)-4-(4-acryloylpiperazin-1-yl)-6-chloro-8-fluoro-7-(2-fluoro-6-hydroxyphenyl)quinazolin-2-yl)amino)-N-(14-((2-(2,6-dioxopiperidin-3-yl)-1,3-dioxoisoindolin-4-yl)amino)-3,6,9,12-tetraoxatetradecyl)-N-methylpropanamide] |  |  |  |  | C (Percent Degradation: C ≤ 35) | C (Percent Degradation: C ≤ 35) | C (Percent Degradation: C ≤ 35) | ≤ 35 | 
6 | C=CC(=O)N1CCN(c2nc(NCCC(=O)N(C)CCOCCOCCOCCNC(=O)c3ccc(NC(=O)[C@@H]4N[C@@H](CC(C)(C)C)[C@](C#N)(c5ccc(Cl)cc5F)[C@H]4c4cccc(Cl)c4F)c(OC)c3)nc3c(F)c(-c4c(O)cccc4F)c(Cl)cc23)CC1 (atropisomer, axis not shown) [compound 311, (2R,3S,4R,5S)-N-(4-((15-((4-(4-acryloylpiperazin-1-yl)-6-chloro-8-fluoro-7-((S)-2-fluoro-6-hydroxyphenyl)quinazolin-2-yl)amino)-12-methyl-13-oxo-3,6,9-trioxa-12-azapentadecyl)carbamoyl)-2-methoxyphenyl)-3-(3-chloro-2-fluorophenyl)-4-(4-chloro-2-fluorophenyl)-4-cyano-5-neopentylpyrrolidine-2-carboxamide] |  |  |  |  | C (Percent Degradation: C ≤ 35) | C (Percent Degradation: C ≤ 35) | C (Percent Degradation: C ≤ 35) | ≤ 35 | 
7 | Cc1ncsc1-c1ccc([C@H](C)NC(=O)[C@@H]2C[C@@H](O)CN2C(=O)[C@@H](NC(=O)COCCOCCOCCOCC/C=C/C(=O)N2CCN(c3ncnc4c(F)c(-c5cc(O)cc6ccccc56)c(Cl)cc34)CC2)C(C)(C)C)cc1 [compound 375, (2S,4R)-1-((2S,E)-2-(tert-butyl)-20-(4-(6-chloro-8-fluoro-7-(3-hydroxynaphthalen-1-yl)quinazolin-4-yl)piperazin-1-yl)-4,20-dioxo-6,9,12,15-tetraoxa-3-azaicos-18-enoyl)-4-hydroxy-N-((S)-1-(4-(4-methylthiazol-5-yl)phenyl)ethyl)pyrrolidine-2-carboxamide] |  |  |  |  | C (Percent Degradation: C ≤ 35) | C (Percent Degradation: C ≤ 35) | C (Percent Degradation: C ≤ 35) | ≤ 35 | 
8 | C=CC(=O)N1CCN(c2nc(O[C@H](C)CN3CCC(OCCOCCOCCOCCOCCOCC(=O)N[C@H](C(=O)N4C[C@H](O)C[C@H]4C(=O)N[C@@H](C)c4ccc(-c5scnc5C)cc4)C(C)(C)C)CC3)nc3c2CCN(c2cc(O)cc4ccccc24)C3)CC1 [compound 410, (2S,4R)-1-((S)-20-((1-((R)-2-((4-(4-acryloylpiperazin-1-yl)-7-(3-hydroxynaphthalen-1-yl)-5,6,7,8-tetrahydropyrido[3,4-d]pyrimidin-2-yl)oxy)propyl)piperidin-4-yl)oxy)-2-(tert-butyl)-4-oxo-6,9,12,15,18-pentaoxa-3-azaicosanoyl)-4-hydroxy-N-((S)-1-(4-(4-methylthiazol-5-yl)phenyl)ethyl)pyrrolidine-2-carboxamide] |  |  |  |  |  |  |  |  | Percent Degradation at Indicated Concentration (μM) (H2030 cells, 0.3 μM): C (Percent Degradation: C ≤ 35); Percent Degradation at Indicated Concentration (μM) (H2030 cells, 1 μM): C (Percent Degradation: C ≤ 35); Percent Degradation at Indicated Concentration (μM) (H2030 cells, 3 μM): C (Percent Degradation: C ≤ 35)
9 | C=CC(=O)N1CCN(c2nc(NCCC(=O)N(C)CCOCCOCC(=O)N[C@H](C(=O)N3C[C@H](O)C[C@H]3C(=O)N[C@@H](C)c3ccc(-c4scnc4C)cc3)C(C)(C)C)nc3c(F)c(-c4c(O)cccc4F)c(Cl)cc23)CC1 (atropisomer, axis not shown) [compound 207, (2S,4R)-1-((S)-15-(((S)-4-(4-acryloylpiperazin-1-yl)-6-chloro-8-fluoro-7-(2-fluoro-6-hydroxyphenyl)quinazolin-2-yl)amino)-2-(tert-butyl)-12-methyl-4,13-dioxo-6,9-dioxa-3,12-diazapentadecanoyl)-4-hydroxy-N-((S)-1-(4-(4-methylthiazol-5-yl)phenyl)ethyl)pyrrolidine-2-carboxamide] |  |  |  |  |  |  | C (Percent Degradation: C ≤ 35) |  | 
10 | C=CC(=O)N1CCN(c2nc(O[C@H](C)CN3CCC(OCCOCCOCCOCCNc4cccc5c4C(=O)N(C4CCC(=O)NC4=O)C5=O)CC3)nc3c2CCN(c2cc(O)cc4ccccc24)C3)CC1 (some centres unmarked) [compound 414] |  |  |  |  |  |  |  |  | Percent Degradation at Indicated Concentration (μM) (H2030 cells, 0.3 μM): C (Percent Degradation: C ≤ 35); Percent Degradation at Indicated Concentration (μM) (H2030 cells, 1 μM): C (Percent Degradation: C ≤ 35); Percent Degradation at Indicated Concentration (μM) (H2030 cells, 3 μM): C (Percent Degradation: C ≤ 35)
